The results in this text go back to US10894784B2, “Heteroarylbenzimidazole compounds” (BAYER PHARMA AKTIENGESELLSCHAFT, priority 2015, dated 2021).

Chain of TBK1 (Q9UHD2 whole entry): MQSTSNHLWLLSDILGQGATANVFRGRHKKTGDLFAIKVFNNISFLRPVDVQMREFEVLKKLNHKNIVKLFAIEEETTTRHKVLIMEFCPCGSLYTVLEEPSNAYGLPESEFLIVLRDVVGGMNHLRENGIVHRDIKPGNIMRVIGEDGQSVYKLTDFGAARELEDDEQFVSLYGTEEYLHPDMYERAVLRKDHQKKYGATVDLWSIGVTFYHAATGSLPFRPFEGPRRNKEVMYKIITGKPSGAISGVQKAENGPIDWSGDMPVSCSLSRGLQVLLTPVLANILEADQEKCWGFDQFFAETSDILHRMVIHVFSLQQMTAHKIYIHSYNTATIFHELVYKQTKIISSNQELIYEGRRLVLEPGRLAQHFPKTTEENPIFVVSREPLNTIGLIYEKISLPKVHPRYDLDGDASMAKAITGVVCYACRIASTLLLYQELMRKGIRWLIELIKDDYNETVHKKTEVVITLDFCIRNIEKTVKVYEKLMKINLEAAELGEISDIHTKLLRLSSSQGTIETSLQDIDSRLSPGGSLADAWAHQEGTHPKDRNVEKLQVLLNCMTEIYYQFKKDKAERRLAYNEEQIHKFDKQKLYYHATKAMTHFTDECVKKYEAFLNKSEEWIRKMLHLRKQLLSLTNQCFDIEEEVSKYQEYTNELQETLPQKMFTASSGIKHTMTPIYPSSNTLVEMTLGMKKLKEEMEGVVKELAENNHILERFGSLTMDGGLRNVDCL

One assay has as its target TBK1 (Homo sapiens (Human), UniProt Q9UHD2). The assay can be described thus: TBK1 low ATP kinase assay (in vitro assay 1). It counts as biochemical. As to conditions: TBK1 low ATP kinase assay IC50, in vitro assay 1.
The compound `Cc1noc(-c2ccc3nc(Nc4cc(C(C)N5CCN(C(=O)CC(F)(F)F)CC5)ccn4)[nH]c3c2)n1` (single isomer, unassigned) [Example 16.06.02.B, 3,3,3-trifluoro-1-{4-[(1S or 1R)-1-(2-{[6-(3-methyl-1,2,4-oxadiazol-5-yl)-1H-benzimidazol-2-yl]amino}pyridin-4-yl)ethyl]piperazin-1-yl}propan-1-one] returned an IC50 of 17.2 nM.

Still in this assay, the particulars now being: in vitro assay 1, read-out: TBK1 low ATP kinase assay IC50.
In the case of `O=C(CC(F)(F)F)N1CCN(Cc2ccnc(Nc3nc4ccc(-c5cc(NCC6CC6)ncn5)cc4[nH]3)c2)CC1` [Example 142.02, 1-[4-({2-[(6-{6-[(cyclopropylmethyl)amino]pyrimidin-4-yl}-1H-benzimidazol-2-yl)amino]pyridin-4-yl}methyl)piperazin-1-yl]-3,3,3-trifluoropropan-1-one], the IC50 stood at 6.6 nM.
Consider `O=C(CC(F)(F)F)N1CCN(Cc2ccnc(Nc3nc4ccc(-c5ccncc5C(F)(F)F)cc4[nH]3)c2)CC1` [Example 106.01, 3,3,3-trifluoro-1-(4-{[2-({6-[3-(trifluoromethyl)pyridin-4-yl]-1H-benzimidazol-2-yl}amino)pyridin-4-yl]methyl}piperazin-1-yl)propan-1-one], for which the IC50 is 1500 nM.
Regarding `Cc1noc(-c2ccc3nc(Nc4cc(C(C)N5CCN(C(=O)C6CC6)CC5)ccn4)[nH]c3c2)n1` (racemic) [Example 16.05.03, (rac)-cyclopropyl{4-[1-(2-{[6-(3-methyl-1,2,4-oxadiazol-5-yl)-1H-benzimidazol-2-yl]amino}pyridin-4-yl)ethyl]piperazin-1-yl}methanone], the IC50 turned out to be 43.1 nM.
Still for that read-out and setting: then `Cc1nccc(-c2ccc3nc(Nc4cc(C(C)N5CCN(C(=O)CC(F)(F)F)CC5)ccn4)[nH]c3c2)n1` (racemic) [Example 24.04.03, (rac)-3,3,3-trifluoro-1-{4-[1-(2-{[6-(2-methylpyrimidin-4-yl)-1H-benzimidazol-2-yl]amino}pyridin-4-yl)ethyl]piperazin-1-yl}propan-1-one], with 12.4 nM; and `COc1nnccc1-c1ccc2nc(Nc3cc(CN4CCN(C(=O)C5CC5)CC4)ccn3)[nH]c2c1` [Example 46.01, cyclopropyl{4-[(2-{[6-(3-methoxypyridazin-4-yl)-1H-benzimidazol-2-yl]amino}pyridin-4-yl)methyl]piperazin-1-yl}methanone], with 32.5 nM; and `Cc1cc(CN2CCN(C(=O)C3CC3)CC2)cc(Nc2nc3ccc(-c4ccnc(C)n4)cc3[nH]2)n1` [Example 24.02.01, cyclopropyl{4-[(2-methyl-6-{[6-(2-methylpyrimidin-4-yl)-1H-benzimidazol-2-yl]amino}pyridin-4-yl)methyl]piperazin-1-yl}methanone], with 45.8 nM.
On the same count and under the same terms, then `CN(c1cc(-c2ccc3nc(Nc4cc(CN5CCN(C(=O)C6CC6)CC5)ccn4)[nH]c3c2)ncn1)C1CCC1` [Example 156.03, [4-({2-[(6-{6-[cyclobutyl(methyl)amino]pyrimidin-4-yl}-1H-benzimidazol-2-yl)amino]pyridin-4-yl}methyl)piperazin-1-yl](cyclopropyl)methanone], with 19 nM.
As to `COc1cnccc1-c1ccc2nc(Nc3cc(CN4CCN(C(=O)C5(C(F)(F)F)CC5)CC4)ccn3)[nH]c2c1` [Example 04.07, {4-[(2-{[6-(3-methoxypyridin-4-yl)-1H-benzimidazol-2-yl]amino}pyridin-4-yl)methyl]piperazin-1-yl}[1-(trifluoromethyl)cyclopropyl]methanone], the IC50 was 10 nM.
Still for that read-out and setting: for `COc1cc(-c2ccc3nc(Nc4cc(CN5CCN(C(=O)C6CC6)CC5)ccn4)[nH]c3c2)ccn1` [Example 02.02, cyclopropyl{4-[(2-{[6-(2-methoxypyridin-4-yl)-1H-benzimidazol-2-yl]amino}pyridin-4-yl)methyl]piperazin-1-yl}methanone] the value was 30.7 nM; for `Cc1nccc(-c2ccc3nc(Nc4cc(C(C)N5CCN(C(=O)C6CCC6)CC5)ccn4)[nH]c3c2)n1` (racemic) [Example 24.04.02, (rac)-cyclobutyl{4-[1-(2-{[6-(2-methylpyrimidin-4-yl)-1H-benzimidazol-2-yl]amino}pyridin-4-yl)ethyl]piperazin-1-yl}methanone], 16.1 nM; for `COc1c(-c2ccc3nc(Nc4cc(CN5CCN(C(=O)C6(C(F)(F)F)CC6)CC5)ccn4)[nH]c3c2)ncnc1N(C)CC1CC1` [Example 110.03, [4-({2-[(6-{6-[(cyclopropylmethyl)(methyl)amino]-5-methoxypyrimidin-4-yl}-1H-benzimidazol-2-yl)amino]pyridin-4-yl}methyl)piperazin-1-yl][1-(trifluoromethyl)cyclopropyl]methanone], 52 nM.
On the same count and under the same terms, for `Cc1cc(-c2ccc3nc(Nc4cc(C(C)N5CCN(C(=O)C6CC6)CC5)ccn4)[nH]c3c2)n(C)n1` (single isomer, unassigned) [Example 89.03, cyclopropyl{4-[(1R or 1S)-1-(2-{[6-(1,3-dimethyl-1H-pyrazol-5-yl)-1H-benzimidazol-2-yl]amino}pyridin-4-yl)ethyl]piperazin-1-yl}methanone] the value was 320 nM; for `O=C(CC(F)(F)F)N1CCN(Cc2ccnc(Nc3nc4ccc(-c5cnc(Cl)nc5)cc4[nH]3)c2)CC1` [Example 45.02.01, 1-{4-[(2-{[6-(2-chloropyrimidin-5-yl)-1H-benzimidazol-2-yl]amino}pyridin-4-yl)methyl]piperazin-1-yl}-3,3,3-trifluoropropan-1-one], 124 nM; for `COc1c(NCC2CC2)ncnc1-c1ccc2nc(Nc3cc(C(C)N4CCN(C(=O)C5CC5)CC4)ccn3)[nH]c2c1` (single isomer, unassigned) [Example 109.02.02, cyclopropyl{4-[(1R or 1S)-1-{2-[(6-{6-[(cyclopropylmethyl)amino]-5-methoxypyrimidin-4-yl}-1H-benzimidazol-2-yl)amino]pyridin-4-yl}ethyl]piperazin-1-yl}methanone], 2 nM.
On the same count and under the same terms, then `Cn1ncnc1-c1ccc2nc(Nc3cc(CN4CCN(C(=O)C5CC5)CC4)ccn3)[nH]c2c1` [Example 41.03, cyclopropyl{4-[(2-{[6-(1-methyl-1H-1,2,4-triazol-5-yl)-1H-benzimidazol-2-yl]amino}pyridin-4-yl)methyl]piperazin-1-yl}methanone], with 770 nM.
For the compound `Cc1cc(-c2ccc3nc(Nc4cc(C(C)N5CCN(C(=O)OC(C)(C)C)CC5)ccn4)[nH]c3c2F)ncn1` (single isomer, unassigned) [Example 172.01, tert-butyl 4-[(1R or 1S)-1-(2-{[7-fluoro-6-(6-methylpyrimidin-4-yl)-1H-benzimidazol-2-yl]amino}pyridin-4-yl)ethyl]piperazine-1-carboxylate], the IC50 was 39.8 nM.
The same measure, in the same setting: for `O=C(C1CC1)N1CCN(Cc2ccnc(Nc3nc4ccc(-c5cc(N6CCCCC6)ncn5)cc4[nH]3)c2)CC1` [Example 145.03, cyclopropyl(4-{[2-({6-[6-(piperidin-1-yl)pyrimidin-4-yl]-1H-benzimidazol-2-yl}amino)pyridin-4-yl]methyl}piperazin-1-yl)methanone] the value was 2.1 nM; for `O=C(CC(F)(F)F)N1CCN(Cc2ccnc(Nc3nc4ccc(-c5ccnc(F)c5)cc4[nH]3)c2)CC1` [Example 137.02, 3,3,3-trifluoro-1-{4-[(2-{[6-(2-fluoropyridin-4-yl)-1H-benzimidazol-2-yl]amino}pyridin-4-yl)methyl]piperazin-1-yl}propan-1-one], 5.8 nM; for `COc1c(-c2ccc3nc(Nc4cc(C(C)N5CCN(C(=O)C6CC6)CC5)ccn4)[nH]c3c2)ncnc1N1CCCC1` (single isomer, unassigned) [Example 112.02, cyclopropyl(4-{(1R or 1S)-1-[2-({6-[5-methoxy-6-(pyrrolidin-1-yl)pyrimidin-4-yl]-1H-benzimidazol-2-yl}amino)pyridin-4-yl]ethyl}piperazin-1-yl)methanone], 1.3 nM.
Still for that read-out and setting: for `Cc1c(-c2ccc3nc(Nc4cc(CN5CCN(C(=O)OC(C)(C)C)CC5)ccn4)[nH]c3c2)ncnc1C(F)(F)F` [Example 183.01, tert-butyl 4-{[2-({6-[5-methyl-6-(trifluoromethyl)pyrimidin-4-yl]-1H-benzimidazol-2-yl}amino)pyridin-4-yl]methyl}piperazine-1-carboxylate] the value was 7280 nM.
Turning to `CC(C)Nc1ncnc(-c2ccc3nc(Nc4cc(CN5CCN(C(=O)C6CC6)CC5)ccn4)[nH]c3c2)c1F` [Example 193.03, cyclopropyl(4-{[2-({6-[5-fluoro-6-(propan-2-ylamino)pyrimidin-4-yl]-1H-benzimidazol-2-yl}amino)pyridin-4-yl]methyl}piperazin-1-yl)methanone], the IC50 was determined as 17.8 nM.
In the case of `O=C(CC(F)(F)F)N1CCN(Cc2ccnc(Nc3nc4ccc(-c5cc(C6CC6)ncn5)cc4[nH]3)c2)CC1` [Example 76.01, 1-{4-[(2-{[6-(6-cyclopropylpyrimidin-4-yl)-1H-benzimidazol-2-yl]amino}pyridin-4-yl)methyl]piperazin-1-yl}-3,3,3-trifluoropropan-1-one], the IC50 was 3.2 nM.
Still for that read-out and setting: then `Cc1noc(-c2ccc3nc(Nc4cc(CN5C[C@@H](C)N(C(=O)C6CCC6)C[C@@H]5C)ccn4)[nH]c3c2)n1` [Example 16.02.05, cyclobutyl{(2R,5S)-2,5-dimethyl-4-[(2-{[6-(3-methyl-1,2,4-oxadiazol-5-yl)-1H-benzimidazol-2-yl]amino}pyridin-4-yl)methyl]piperazin-1-yl}methanone], with 405 nM.
As for `COc1c(NC2CC2)ncnc1-c1ccc2nc(Nc3cc(CN4CCN(C(=O)CC(F)(F)F)CC4)ccn3)[nH]c2c1` [Example 108.02, 1-(4-{[2-({6-[6-(cyclopropylamino)-5-methoxypyrimidin-4-yl]-1H-benzimidazol-2-yl}amino)pyridin-4-yl]methyl}piperazin-1-yl)-3,3,3-trifluoropropan-1-one], the IC50 was 8.2 nM.
Still for that read-out and setting: then `CN(C)c1ncnc(-c2ccc3nc(Nc4cc(CN5CCN(C(=O)OC(C)(C)C)CC5)ccn4)[nH]c3c2)c1Cl` [Example 179.01, tert-butyl 4-{[2-({6-[5-chloro-6-(dimethylamino)pyrimidin-4-yl]-1H-benzimidazol-2-yl}amino)pyridin-4-yl]methyl}piperazine-1-carboxylate], with 3010 nM.
